Assay [1] addresses human 20S proteasome, trypsin-like (T-L) activity (Homo sapiens, UniProt Q99436). The assay can be described thus: T-L activity of latent human 20S proteasome (Z-LLR-AMC, no SDS). Conditions: T-like Human 20S IC50, latent human 20S, Tris buffer without SDS, pH 8.1, 37°C, Z-LLR-AMC 52 µM.
Method: (§1) The peptidase activities of 20S proteasome were assayed using fluorogenic tri- and tetra-peptides coupled at their C-termini with 7-amino-4-methylcoumarin group (AMC). The initial concentration of purified yeast 20S proteasome [E0] […] An assay buffer was composed of 50 mM Tris-HCl (pH 8.1) and 0.02% (w/v) SDS (exceptionally, T-L activity was measured in Tris buffer without SDS, that may trigger precipitation of substrates containing the guanidino group [21]). […] The SFTI-1 analogues were incubated with 20S proteasome in assay buffer at 37°C for 30 min. Reactions were performed in 96-well black BRAND plates (Germany). The final volume of the solution in each well was 200 µL. […] Proteasomal subsite activities were determined by monitoring the AMC liberation over time with a Fluorostar Omega (BMG Labtech, Germany) using excitation and emission wavelengths of 380 nm and 450 nm, respectively.
For assay [2], the target named is human 20S proteasome, caspase-like (C-L) activity (Homo sapiens, UniProt P28072). The assay can be described thus: C-L activity of SDS-activated human 20S proteasome (Z-LLE-AMC). As to conditions: C-like Human 20S IC50, SDS-activated human 20S, pH 8.1, 37°C, Z-LLE-AMC 79 µM.
Method: (§2) An assay buffer was composed of 50 mM Tris-HCl (pH 8.1) and 0.02% (w/v) SDS (exceptionally, T-L activity was measured in Tris buffer without SDS, that may trigger precipitation of substrates containing the guanidino group [21]). […] The SFTI-1 analogues were incubated with 20S proteasome in assay buffer at 37°C for 30 min. Reactions were performed in 96-well black BRAND plates (Germany). The final volume of the solution in each well was 200 µL. […] Proteasomal subsite activities were determined by monitoring the AMC liberation over time with a Fluorostar Omega (BMG Labtech, Germany) using excitation and emission wavelengths of 380 nm and 450 nm, respectively. […] Association constants Ka were measured as described previously [14] and calculated using a two-parameter fit model (using the GraFit software package).
The target of assay [3] is yeast 20S proteasome, chymotrypsin-like (ChT-L) activity (Saccharomyces cerevisiae, UniProt P30656). Kind of assay: ChT-L activity of SDS-activated yeast 20S proteasome (Suc-LLVY-AMC).
Method: as §1
The target in assay [4] is T1, human 20S proteasome, chymotrypsin-like (ChT-L) activity (Homo sapiens, UniProt P28074).
Method: as §2
For assay [5], the target named is T1, human 20S proteasome, chymotrypsin-like (ChT-L) activity. The assay can be described thus: biochemical. Conditions: for IC50: ChT-like Human 20S IC50, SDS-activated human 20S, [E] 2.7 nM, pH 8.1, 37°C, Suc-LLVY-AMC 52 µM.
Method: as §2
Assay [6] concerns rat and porcine 20S proteasomes, ChT-L. Details: method as in PMID 19054805. Conditions: cited from earlier work.
The subject of assay [7] is rat and porcine 20S proteasomes, C-L site. Details: method as in PMID 19054805. Conditions: cited from earlier work.
Assay [8] has as its system rat and porcine 20S proteasomes, T-L. Details: method as in PMID 19054805. As to conditions: cited from earlier work.
The subject of the next assay is 20S proteasome. Details: method as in PMID 10805568. Conditions: ChT-L, T-L and C-L; cited from earlier work.
[9] abbreviates: ChT-like Yeast 20S IC50, SDS-activated yeast 20S, [E] 0.9 nM, pH 8.1, 37°C, 30 min incubation, Suc-LLVY-AMC 5.2 µM.

This is an account of results in paper PMC3934894, “Inhibition of Human and Yeast 20S Proteasome by Analogues of Trypsin Inhibitor SFTI-1” (PLoS ONE, 2014).

“And” between values parts separate entries of the source, which are not always exact repeats. Equal values may be shown once. Read-outs that look alike come from different tables or passages of the source. Peptide text beside a SMILES is read from it. * marks the point of attachment. Cbz = O=C(OCc1ccccc1)*

For `CC[C@H](C)[C@@H]1NC(=O)[C@@H]2CCCN2C(=O)[C@H](CCCCN)NC(=O)[C@H](CCCCN)NC(=O)[C@H](CO)NC(=O)[C@H](CCCNC(=N)N)NC(=O)[C@H]([C@@H](C)O)NC(=O)[C@@H](NC(=O)[C@H](CCCNC(=N)N)NC(=O)CN)CSSC[C@@H](C(=O)N[C@@H](Cc2ccccc2)C(=O)N2CCC[C@H]2C(=O)N[C@@H](CC(=O)O)C(=O)O)NC1=O` [Analogue V] (HELM PEPTIDE1{G.R.C.T.R.S.K.K.P.I.C.F.P.D}$PEPTIDE1,PEPTIDE1,3:R3-11:R3$$$V2.0), the half-maximal inhibitory concentration (IC50) is 72.2 µM in assay [1]; 0.6 µM and 0.61 µM in assay [2]; 1.23 µM in assay [3]; 0.9 µM and 0.94 µM in assay [5]. Further, the “times lower Ka than Z-LLL-CHO” value in assay [4] (human 20S ChT-L) was “about 6.5 times”. The Kd in assay [5] came out at 1 µM. This compound also had a Ki in [5] of 0.31 µM.

`CC(C)C[C@@H](C=O)NC(=O)[C@H](CC(C)C)NC(=O)[C@H](CC(C)C)NC(=O)OCc1ccccc1` [Z-LLL-CHO, reference compound] (Cbz-Leu-Leu-Leu-aldehyde): the IC50 in assay [6] was 0.78 µM; in assay [1], 48.2 µM; in assay [2], 5.62 µM; in assay [7], 1.7 µM; in assay [3], 0.26 µM; in assay [8] it was 2.3 µM. In addition, the “inhibition of ChT-L activity at 4 µM” value in [4] is recorded as “completely abolished”. In [4] (pH 8.1), the “ChT-like Human 20S Ka×10^5” value amounted to 65.4.

On to `CC[C@H](C)[C@@H]1NC(=O)[C@@H]2CCCN2C(=O)[C@H]([C@@H](C)CC)NC(=O)[C@H](CCCNC(=N)N)NC(=O)[C@H](CO)NC(=O)[C@H](CCCCN)NC(=O)[C@H]([C@@H](C)O)NC(=O)[C@@H](NC(=O)[C@H](CCCNC(=N)N)NC(=O)CN)CSSC[C@@H](C(=O)N[C@@H](Cc2ccccc2)C(=O)N2CCC[C@H]2C(=O)N[C@@H](CC(=O)O)C(=O)O)NC1=O` [Analogue IV] (HELM PEPTIDE1{G.R.C.T.K.S.R.I.P.I.C.F.P.D}$PEPTIDE1,PEPTIDE1,3:R3-11:R3$$$V2.0), for which the IC50 in assay [1] was determined as 60.5 µM; in [2], 2.44 µM; in assay [3] (setting [9]), 5.36 µM; in assay [5] it was 2.49 µM. In addition, the Ki in assay [5] worked out at 1.31 µM.

As for `CC[C@H](C)[C@H](NC(=O)[C@H]([C@@H](C)CC)N(C)C(C)=O)C(=O)N[C@H](C(=O)N[C@@H](CC(C)C)C(=O)[C@@]1(C)CO1)[C@@H](C)O` [epoxomicin], the IC50 was 0.14 µM in [6], 3.6 µM in assay [7] and 0.32 µM in assay [8].

With `CC[C@H](C)[C@@H]1NC(=O)[C@@H]2CCCN2C(=O)[C@H](CCCCN)NC(=O)[C@H](CC(C)C)NC(=O)[C@H](CO)NC(=O)[C@H](CCCNC(=N)N)NC(=O)[C@H]([C@@H](C)O)NC(=O)[C@@H](NC(=O)[C@H](CCCNC(=N)N)NC(=O)CN)CSSC[C@@H](C(=O)N[C@@H](Cc2ccccc2)C(=O)N2CCC[C@H]2C(=O)N[C@@H](CC(=O)O)C(=O)O)NC1=O` [Analogue III] (HELM PEPTIDE1{G.R.C.T.R.S.L.K.P.I.C.F.P.D}$PEPTIDE1,PEPTIDE1,3:R3-11:R3$$$V2.0), the IC50 in [1] was more than 100 µM; in [2] it was 2.42 µM; in assay [3], 1.07 µM; in assay [5], 3.36 µM. The compound also had a Ki in [5] of 1.76 µM.

For `CC[C@H](C)[C@@H]1NC(=O)[C@@H]2CCCN2C(=O)[C@H](CCCCN)NC(=O)[C@H](CCCCN)NC(=O)[C@H](CO)NC(=O)[C@H](Cc2ccccc2)NC(=O)[C@H]([C@@H](C)O)NC(=O)[C@@H](NC(=O)[C@H](CCCNC(=N)N)NC(=O)CN)CSSC[C@@H](C(=O)N[C@@H](Cc2ccccc2)C(=O)N2CCC[C@H]2C(=O)N[C@@H](CC(=O)O)C(=O)O)NC1=O` [Analogue VII] (HELM PEPTIDE1{G.R.C.T.F.S.K.K.P.I.C.F.P.D}$PEPTIDE1,PEPTIDE1,3:R3-11:R3$$$V2.0), the half-inhibitory concentration (IC50) in assay [1] worked out at 45.3 µM; in assay [2], 2.8 µM; in assay [3], 5.34 µM; in assay [5], 3.41 µM. Further, in assay [5], the Ki was 1.75 µM.

For the compound `CC[C@H](C)[C@@H]1NC(=O)[C@@H]2CCCN2C(=O)[C@H](CCCCN)NC(=O)[C@H](CC(C)C)NC(=O)[C@H](CO)NC(=O)[C@H](CCCCN)NC(=O)[C@H]([C@@H](C)O)NC(=O)[C@@H](NC(=O)[C@H](CCCNC(=N)N)NC(=O)CN)CSSC[C@@H](C(=O)N[C@@H](Cc2ccccc2)C(=O)N2CCC[C@H]2C(=O)N[C@@H](CC(=O)O)C(=O)O)NC1=O` [Analogue II] (HELM PEPTIDE1{G.R.C.T.K.S.L.K.P.I.C.F.P.D}$PEPTIDE1,PEPTIDE1,3:R3-11:R3$$$V2.0), the IC50 in assay [1] was more than 100 µM; in assay [2], 6.74 µM; in [3] (setting [9]), 2.15 µM; in assay [5] it was 2.66 µM. The affinity in assay [5], expressed as Ki, was 1.23 µM.

In the case of `CC[C@H](C)[C@@H]1NC(=O)[C@@H]2CCCN2C(=O)[C@H](CCCCN)NC(=O)[C@H](CCCCN)NC(=O)[C@H](CO)NC(=O)[C@H](Cc2ccc(O)cc2)NC(=O)[C@H]([C@@H](C)O)NC(=O)[C@@H](NC(=O)[C@H](CCCNC(=N)N)NC(=O)CN)CSSC[C@@H](C(=O)N[C@@H](Cc2ccccc2)C(=O)N2CCC[C@H]2C(=O)N[C@@H](CC(=O)O)C(=O)O)NC1=O` [Analogue VI] (HELM PEPTIDE1{G.R.C.T.Y.S.K.K.P.I.C.F.P.D}$PEPTIDE1,PEPTIDE1,3:R3-11:R3$$$V2.0), the figures for the IC50 in assay [1], in assay [2] and in [3] were 93.1 µM, 4.02 µM and 6.6 µM, respectively. Moreover, the Ki in [5] came to 1.43 µM.

Take `C/C=C\NC(=O)[C@H]1NC(=O)[C@H](CC(N)=O)NC(=O)[C@@H](NC(=O)C(=O)[C@H](C)CC)Cc2ccc(O)c(c2)-c2cccc3c2NC(=O)[C@@]3(O)[C@@H]1O` [TMC-95B]: the “reduction of 20S activities compared with TMC-95A” value with 20S proteasome is “to the same extent as TMC-95A”.

`CC[C@H](C)[C@@H]1NC(=O)[C@@H]2CCCN2C(=O)[C@H](C)NC(=O)[C@H](C)NC(=O)[C@H](CO)NC(=O)[C@H](CCCCN)NC(=O)[C@H]([C@@H](C)O)NC(=O)[C@@H](NC(=O)[C@H](CCCNC(=N)N)NC(=O)CN)CSSC[C@@H](C(=O)N[C@@H](Cc2ccccc2)C(=O)N2CCC[C@H]2C(=O)N[C@@H](CC(=O)O)C(=O)O)NC1=O` [Analogue IX] (HELM PEPTIDE1{G.R.C.T.K.S.A.A.P.I.C.F.P.D}$PEPTIDE1,PEPTIDE1,3:R3-11:R3$$$V2.0): the IC50 in [1] is 62.1 µM; in [2], more than 100 µM; in assay [3] (setting [9]) it was more than 100 µM; in [5] it was more than 100 µM. The remaining activity at 100 µM in [3] (read-out: ChT-L activity remaining at about 100 µM) was not below 70%.

Take `CC[C@H](C)[C@@H]1NC(=O)[C@@H]2CCCN2C(=O)[C@H](CCCCN)NC(=O)[C@H](CCCCN)NC(=O)[C@H](CO)NC(=O)[C@H](CCCCN)NC(=O)[C@H]([C@@H](C)O)NC(=O)[C@@H](NC(=O)[C@H](CCCNC(=N)N)NC(=O)CN)CSSC[C@@H](C(=O)N[C@@H](Cc2ccccc2)C(=O)N2CCC[C@H]2C(=O)N[C@@H](CC(=O)O)C(=O)O)NC1=O` [Analogue X] (HELM PEPTIDE1{G.R.C.T.K.S.K.K.P.I.C.F.P.D}$PEPTIDE1,PEPTIDE1,3:R3-11:R3$$$V2.0): the IC50 was 86.7 µM in [1]; 1.12 µM in assay [2]; ~16.7 µM and 16.7 µM in [3] (setting [9]); ~1.28 µM and 1.28 µM in [5]. The same compound gave a Ki in assay [5] of 0.66 µM.

As for `CC[C@H](C)[C@@H]1NC(=O)[C@@H]2CCCN2C(=O)[C@@H]2CCCN2C(=O)[C@H]([C@@H](C)CC)NC(=O)[C@H](CO)NC(=O)[C@H](CCCCN)NC(=O)[C@H]([C@@H](C)O)NC(=O)[C@@H](NC(=O)[C@H](CCCNC(=N)N)NC(=O)CN)CSSC[C@@H](C(=O)N[C@@H](Cc2ccccc2)C(=O)N2CCC[C@H]2C(=O)N[C@@H](CC(=O)O)C(=O)O)NC1=O` [Analogue I], the IC50 is more than 100 µM in [1], 58.2 µM in [2], 52 µM in [3] (setting [9]) and 51.6 µM in assay [5]. The compound further gave a Ki in assay [5] of 27 µM.

With `C/C=C\NC(=O)[C@H]1NC(=O)[C@H](CC(N)=O)NC(=O)[C@@H](NC(=O)C(=O)[C@@H](C)CC)Cc2ccc(O)c(c2)-c2cccc3c2NC(=O)[C@@]3(O)[C@H]1O` [TMC-95C], the “times weaker than TMC-95A” value in the assay on 20S proteasome is 20–150 times.

As for `CC[C@H](C)[C@@H]1NC(=O)[C@@H]2CCCN2C(=O)[C@H](CCCCN)NC(=O)[C@H](CCCCN)NC(=O)[C@H](CO)NC(=O)[C@H](C)NC(=O)[C@H]([C@@H](C)O)NC(=O)[C@@H](NC(=O)[C@H](CCCNC(=N)N)NC(=O)CN)CSSC[C@@H](C(=O)N[C@@H](Cc2ccccc2)C(=O)N2CCC[C@H]2C(=O)N[C@@H](CC(=O)O)C(=O)O)NC1=O` [Analogue VIII] (HELM PEPTIDE1{G.R.C.T.A.S.K.K.P.I.C.F.P.D}$PEPTIDE1,PEPTIDE1,3:R3-11:R3$$$V2.0), the IC50 in assay [1] is more than 100 µM; in assay [2] it was 5.37 µM; in assay [3] it was 8.82 µM; in assay [5] it was 5.8 µM. The Ki in [5] worked out at 2.99 µM.

As a reminder, the IC50 is the concentration needed to halve the response being measured. In general, Kd refers to the concentration at which binding is half-saturated. A low value points to tighter binding. What is called Ki is a measure of affinity in units of concentration, obtained from inhibition or displacement. A low value points to higher affinity.
